Structures are written as SMILES. pEC50: −log10 of the molar value.

The first experiment has as its target T1, Solute carrier family 12 member 5 (Homo sapiens, UniProt Q9H2X9).
T1 sequence (Q9H2X9 whole entry): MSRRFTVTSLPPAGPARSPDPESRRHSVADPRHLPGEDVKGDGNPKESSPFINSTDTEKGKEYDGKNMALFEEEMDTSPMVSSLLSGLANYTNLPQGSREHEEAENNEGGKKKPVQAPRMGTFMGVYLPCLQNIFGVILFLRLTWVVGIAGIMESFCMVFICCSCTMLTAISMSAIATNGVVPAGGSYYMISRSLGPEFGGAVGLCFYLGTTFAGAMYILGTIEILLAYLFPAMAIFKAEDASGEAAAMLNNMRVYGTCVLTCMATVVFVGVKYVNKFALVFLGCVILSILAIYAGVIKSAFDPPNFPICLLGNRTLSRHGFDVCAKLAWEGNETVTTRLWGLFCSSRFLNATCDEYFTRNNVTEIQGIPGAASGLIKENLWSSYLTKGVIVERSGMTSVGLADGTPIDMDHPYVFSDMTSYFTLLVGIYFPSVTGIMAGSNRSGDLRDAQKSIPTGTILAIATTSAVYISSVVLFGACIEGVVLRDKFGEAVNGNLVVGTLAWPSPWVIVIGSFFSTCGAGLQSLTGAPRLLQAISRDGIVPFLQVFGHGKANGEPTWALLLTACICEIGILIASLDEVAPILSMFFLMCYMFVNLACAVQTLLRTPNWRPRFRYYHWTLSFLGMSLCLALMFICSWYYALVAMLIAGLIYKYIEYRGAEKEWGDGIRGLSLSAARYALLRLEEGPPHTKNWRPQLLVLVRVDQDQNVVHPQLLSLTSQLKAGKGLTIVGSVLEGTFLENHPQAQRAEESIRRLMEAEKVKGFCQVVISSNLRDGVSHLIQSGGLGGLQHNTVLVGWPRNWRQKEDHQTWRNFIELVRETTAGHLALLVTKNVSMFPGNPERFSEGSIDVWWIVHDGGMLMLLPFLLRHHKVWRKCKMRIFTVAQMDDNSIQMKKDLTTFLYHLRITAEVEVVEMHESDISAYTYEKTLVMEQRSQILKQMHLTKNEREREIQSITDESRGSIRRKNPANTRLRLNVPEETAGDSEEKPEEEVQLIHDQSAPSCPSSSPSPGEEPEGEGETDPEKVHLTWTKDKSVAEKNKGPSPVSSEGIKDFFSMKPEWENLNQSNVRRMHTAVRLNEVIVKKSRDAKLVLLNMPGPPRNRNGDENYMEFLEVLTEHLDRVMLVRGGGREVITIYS
The experiment is described as follows: KCC2 modulator potency by thallium flux, dose response, cell-based, HEK293 KCC2, FluoZin-2 fluorescence (AID 1736).
Settings: not given
The pEC50 is the negative decadic logarithm of the EC50, by convention in mol/L. Low values mean a large EC50, high ones a small EC50. `O=c1[nH]c2c(s1)C(c1ccccc1)c1c(c(O)n(-c3ccccc3)c1O)S2` (stereo not drawn): the negative logarithm of the EC50 (pEC50) is 7.18.

The molecule `CCc1ccc(OCCNC(=O)c2ccccc2SCc2ccc(F)cc2)cc1` [MLS000577152] showed a pEC50 of 5.86.

`CCCn1c(N)c(C(=O)CSc2nnc(Cc3ccccc3)o2)c(=O)n(C)c1=O` [6-amino-3-methyl-5-[1-oxo-2-[[5-(phenylmethyl)-1,3,4-oxadiazol-2-yl]thio]ethyl]-1-propylpyrimidine-2,4-dione] gave a pEC50 of 7.77.

`CC(=O)NCCC(=O)N1CCCC(CNC(=O)c2ccc(-c3ccccc3)cc2)C1` (stereo not drawn) [MLS000733794] showed a pEC50 of 5.30.

Turning to `CCCC1=NN2C(=N)/C(=C\c3cc(C)n(-c4cc(C)cc(C)c4)c3C)C(=O)N=C2S1` [MLS000588586], the pEC50 is 5.17.

As for `O=C(NC(=S)Nc1nc(-c2cccc([N+](=O)[O-])c2)cs1)c1cc(Cl)ccc1Cl` [2,5-bis(chloranyl)-N-[[4-(3-nitrophenyl)-1,3-thiazol-2-yl]carbamothioyl]benzamide], the pEC50 was 4.79.

In the case of `CC12CC3(C)CC(C)(C1)CC(C(=O)NC(=S)N1CCCC1)(C2)C3` [3,5,7-trimethyl-N-pyrrolidin-1-ylcarbothioyl-adamantane-1-carboxamide], the pEC50 was 5.94.

Consider `COc1cc(CC(C)N)c(OC)cc1I` (stereo not drawn) [[125I]2,5-dimethoxy-4-iodoamphetamine], for which the pEC50 is 3.54.

Molecule `CC1Cc2ccccc2N1C(=O)/C=C/c1cccc(F)c1` (stereo not drawn) [(E)-3-(3-fluorophenyl)-1-(2-methyl-2,3-dihydroindol-1-yl)-2-propen-1-one] had a negative logarithm of the EC50 (pEC50) of 3.89.

In turn, `S=C(NCc1cccnc1)Nc1ccc(Oc2ccccc2)cc1` [1-(4-phenoxyphenyl)-3-(3-pyridinylmethyl)thiourea] had a pEC50 of 5.07.

`N#Cc1ccccc1NC(=O)CSc1nccn1CCc1ccccc1` [MLS000051858] showed a pEC50 of 5.49.

`O=c1[nH]c2ccc(S(=O)(=O)N3CCN(c4ccccc4F)CC3)cc2s1` [6-{[4-(2-fluorophenyl)piperazin-1-yl]sulfonyl}-1,3-benzothiazol-2(3H)-one] gave a pEC50 of 5.25.

`O=C(O)CCN(Cc1ccccc1)S(=O)(=O)c1c(Cl)cccc1Cl` [3-[(2,6-dichlorophenyl)sulfonyl-(phenylmethyl)amino]propanoic acid] gave a pEC50 of 4.23.

As for `O=C(CSc1ccccc1C(=O)NCc1ccccc1)NC1CCCCCCC1` [2-[2-(cyclooctylamino)-2-oxidanylidene-ethyl]sulfanyl-N-(phenylmethyl)benzamide], the negative logarithm of the EC50 (pEC50) was 4.29.

`Cc1cc(NC(=O)CSc2ccc(-c3ccc(F)cc3)nn2)no1` [2-[6-(4-fluorophenyl)pyridazin-3-yl]sulfanyl-N-(5-methyl-1,2-oxazol-3-yl)acetamide] showed a negative logarithm of the EC50 (pEC50) of 6.77.

With `CC(C)(C)NC(=O)C(c1cccs1)N(CC1CCCO1)C(=O)c1ccc(-c2ccccc2)[nH]1` (stereo not drawn) [N-[2-(tert-butylamino)-2-oxo-1-thiophen-2-ylethyl]-N-(2-oxolanylmethyl)-5-phenyl-1H-pyrrole-2-carboxamide], the pEC50 is 6.35.

For `NC(=S)NN=C1C(=O)N(Cc2ccccc2)c2ccccc21` [1-[(Z)-[2-oxidanylidene-1-(phenylmethyl)indol-3-ylidene]amino]thiourea], the pEC50 is 6.53.

Regarding `Cc1ccc(CSCCNC(=O)c2ccc(C)cc2)cc1` [4-methyl-N-[2-[(4-methylbenzyl)thio]ethyl]benzamide], the pEC50 is 2.57.

Regarding `NC(=O)COc1ccccc1/C=C1/SC(=O)N(CC(=O)N2CCc3ccccc3C2)C1=O` [2-[2-({3-[2-(3,4-dihydro-2(1H)-isoquinolinyl)-2-oxoethyl]-2,4-dioxo-1,3-thiazolidin-5-ylidene}methyl)phenoxy]acetamide], the pEC50 was 4.49.

`O=C(O)c1cc(-c2ccc(F)cc2F)ccc1O` gave a pEC50 of 4.59.

In turn, `COc1ccc(S(=O)(=O)N(C)CC(=O)N2CCN(Cc3ccccc3)CC2)cc1C` [4-methoxy-N,3-dimethyl-N-[2-oxidanylidene-2-[4-(phenylmethyl)piperazin-1-yl]ethyl]benzenesulfonamide] showed a pEC50 of 5.83.

`CC1(CCc2ccccc2)NC(=O)N(Cc2nnc(-c3ccccc3Br)o2)C1=O` (stereo not drawn) [3-[[5-(2-bromophenyl)-1,3,4-oxadiazol-2-yl]methyl]-5-methyl-5-(2-phenylethyl)imidazolidine-2,4-dione]: the pEC50 was 4.84.

Staying with this experiment, now noted: inactive by the depositor's call.
For the molecule `COc1ccc(-c2nc(C[S+]([O-])CC(=O)N3CCc4ccccc4C3)c(C)o2)cc1` (stereo not drawn) [1-(3,4-dihydro-1H-isoquinolin-2-yl)-2-[[2-(4-methoxyphenyl)-5-methyl-1,3-oxazol-4-yl]methylsulfinyl]ethanone], the negative logarithm of the EC50 (pEC50) was 2.85.

The record behind these values is BindingDB's records for doi:10.7270/Q2TX3CSC (Vanderbilt Screening Center for GPCRs, Ion Channels and …, 2009).
